Experimental data reported in US20240156960A1 (priority 2020, published 2024).
Read-outs that look alike come from different tables or passages of the source.

Legend:
SARS-CoV2 S; RBD = SARS-CoV2 S; RBD (Severe acute respiratory syndrome coronavirus 2, UniProt P0DTC2); details: epitope S; cited from earlier work
SARS-CoV1 [1] = details: cited from earlier work
SARS-CoV2 [2] = details: Protein + Epitope: S; literature source; cited from earlier work
SARS-CoV1 [3] = details: cited from earlier work; remark: listed apart in the source
SARS-CoV2 [4] = details: source Seth Zost et al., 2020; cited from earlier work
[5] = Serum hG-CSF protein by ELISA after DOTAP liposomes, hG-CSF plasmid DNA and immuno-modulating agents; type: in vivo, CD-1 mice
[6] = Serum ALT/AST levels (toxicity) after liposome and DNA injection
[7] = Critical toxicity markers after dexamethasone pretreatment and IV DNA vector; details: pre-dosed IP 1 to 40 mg/kg
mouse IGF-1 = experiment: Serum levels of mouse IGF-1 by ELISA (hGH bioactivity); type: in vivo; details: CD-1 mice, day 127 after injection (Example 10)
SARS-CoV2 [8] = details: SARS-CoV2 listed as neutralised; cited from earlier work
SARS-CoV2 [9] = details: SARS-CoV2 listed as bound; cited from earlier work
[10] = system: coronavirus named in the cell (SARS-CoV2, SARS-CoV1), S protein; details: cited from earlier work
[11] = system: coronavirus named in the cell (SARS-CoV2, SARS-CoV1); details: cited from earlier work
[12] = mouse, in vivo
[13] = IP 2 hours prior to lipid and DNA injection (Example 20 Part 4)
[14] = agent in liposomes pre-injected IP prior to cationic liposomes (Example 16 Part 3)
[15] = agent incorporated into cationic liposomes (900 nmol DOTAP SUV), 70 ug hG-CSF DNA, day 1

Compound: C107
- Binds to (SARS-CoV2 S; RBD): SARS-CoV2
- Not Neutralising Vs (SARS-CoV1 [1]): SARS-CoV1,

Compound: BD23
- Binds to (SARS-CoV2 [2]): SARS-CoV2

Compound: C005
- Not Neutralising Vs (SARS-CoV1 [3]): SARS-CoV1
- Binds to (SARS-CoV2 [2]): SARS-CoV2

Compound: CoV2-2130
- Binds to (SARS-CoV2 [4]): SARS-CoV2

Compound: C002
- Not Neutralising Vs (SARS-CoV1 [3]): SARS-CoV1
- Binds to (SARS-CoV2 [2]): SARS-CoV2

Compound: N-Acetyl-De-O-Sulfated Heparin [NSH]
- gene expression (serum hG-CSF) [5, 13]: further increase gene expression
- toxicity (serum ALT/AST) ([6]; IP 0.25 or 1 mg per mouse, 2 hours pre or 2 hours post lipid and DNA injection): reduce toxicity
- toxicity (serum ALT/AST) [6, 13]: further reducing its toxicity

Compound: C[C@@H]1C[C@H]2[C@@H]3CCC4=CC(=O)C=C[C@]4(C)[C@@]3(F)[C@@H](O)C[C@]2(C)[C@@]1(O)C(=O)CO [dexamethasone]
- critical toxicity markers [7]: at or closely approximating background control levels

Compound: C021
- Binds to (SARS-CoV2 S; RBD): SARS-CoV2
- Not Neutralising Vs (SARS-CoV1 [1]): SARS-CoV1,

Compound: C013
- Not Neutralising Vs (SARS-CoV1 [3]): SARS-CoV1
- Binds to (SARS-CoV2 [2]): SARS-CoV2

Compound: dexamethasone 21-palmitate [dexamethasone palmitate]
- peak levels of gene expression (serum hG-CSF) ([5]; 5 mole percent in DOTAP SUV, otherwise ineffective hG-CSF-DNA dose (Example 16 Part 6)): further increase peak levels of gene expression
- gene expression (serum hG-CSF) [5, 14]: further increase gene expression
- gene expression (serum hG-CSF) [5, 15]: further increase gene expression
- toxicity (ALT levels) [6, 14]: further decrease toxicity
- toxicity (ALT levels) [6, 15]: further decrease toxicity

Compound: C112
- Binds to (SARS-CoV2 S; RBD): SARS-CoV2

Compound: C006
- Not Neutralising Vs (SARS-CoV1 [3]): SARS-CoV1
- Binds to (SARS-CoV2 [2]): SARS-CoV2

Compound: C029
- Binds to (SARS-CoV2 S; RBD): SARS-CoV2
- Not Neutralising Vs (SARS-CoV1 [1]): SARS-CoV1,

Compound: CoV2-2196
- Binds to (SARS-CoV2 [4]): SARS-CoV2

Compound: C102
- Binds to (SARS-CoV2 S; RBD): SARS-CoV2

Compound: C018
- Binds to (SARS-CoV2 S; RBD): SARS-CoV2
- Not Neutralising Vs (SARS-CoV1 [1]): SARS-CoV1,

Compound: C119
- Binds to (SARS-CoV2 S; RBD): SARS-CoV2

Compound: C016
- Not Neutralising Vs (SARS-CoV1 [3]): SARS-CoV1,
- Binds to (SARS-CoV2 [2]): SARS-CoV2

Compound: hGH
- bioactivity of cDNA-encoded hGH protein (increase of endogenous mouse IGF-1) (mouse IGF-1): fully bioactive

Compound: C003
- Not Neutralising Vs (SARS-CoV1 [3]): SARS-CoV1
- Binds to (SARS-CoV2 [2]): SARS-CoV2

Compound: CB6
- Neutralising Vs (SARS-CoV2 [8]): SARS-CoV2
- Binds to (SARS-CoV2 [9]): SARS-CoV2

Compound: 4A8
- Binds to [10]: SARS-CoV2
- Neutralising Vs [11]: SARS-CoV2

Compound: C121
- Binds to (SARS-CoV2 S; RBD): SARS-CoV2
- duration of fully neutralizing serum levels of each SARS-CoV2-specific mAb [12]: at least 134 days

Compound: B38
- Binds to (SARS-CoV2 [2]): SARS-CoV2
